Assay results taken from PMC9863297, “Intermolecular Interactions of Edaravone in Aqueous Solutions of Ethaline and Glyceline Inferred from Experiments and Quantum Chemistry Computations” (Molecules, 2023).
Read-outs that look alike come from different tables or passages of the source.

Experiment: Edaravone solubility, slurry/shake-flask method with spectrophotometric determination at 243 nm
Type: physicochemical
Details: for solubility at 24 h: thermodynamic from solid, read-out: cE solubility concentration; for mole fraction solubility advantage of 1:2 composition over unimolar composition: DES involving ethylene glycol; for volume of saturated solution containing the recommended 60 mg: solubility at 298.15 K
Description: The first step in obtaining a calibration curve was the preparation of a stock solution of edaravone with a concentration of 2.3 mg/mL. This initial solution was successfully diluted in 10 mL volumetric flasks with methanol and the obtained solutions with decreasing concentrations were measured spectrophotometrically. […] Three separate curves were obtained, and the final curve resulted from averaging. […] The limits of detection (LOD) and quantification (LOQ) were calculated as 5.899∙10^−4 mg/mL and 1.770∙10^−3 mg/mL, respectively.
All of the studied deep eutectic solvents included choline chloride, while the second constituent was either glycerol or ethylene glycol. In order to prepare a DES formulation, choline chloride was mixed with the second compound in different molar ratios in sealed test tubes and placed in a water bath at 363.15 K until the formation of a uniform solution. The obtained DES were either used in their neat form or water was added to them in different proportions in order to form binary systems.
During the next stage, edaravone was added in excess amounts to the test tubes containing both neat DES and binary mixtures, which enabled us to obtain its saturated solutions. Samples prepared in such a manner were placed in an Orbital Shaker Incubator ES-20/60 from Biosan (Riga, Latvia) and incubated for 24 h at different temperatures, namely 298.15 K, 303.15 K, 308.15 K and 313.15 K. The temperature adjustment accuracy was 0.1 K and its variability in a 24 h cycle was ±0.5 K. Apart from heating, all of the samples were mixed at 60 rev/min. The increased viscosity and density of DES systems required the samples to be centrifuged at 1000 rev/min for 5 min with the use of EBA 20 centrifuge from Hettich (Tuttlingen, Germany) enabling the undissolved precipitate to remain on the bottom of the test tubes. Next, the samples were filtered using a syringe equipped with a PTFE syringe filer with 0.22 µm pore size. In order to avoid precipitation, the test tubes, syringes and filters were initially heated at a temperature equal to the one of the handled samples. Finally, small amounts of the obtained filtrate were transferred to test tubes filled with methanol and the diluted samples were measured spectrophotometrically. Additionally, for the determination of the mole fractions of edaravone, the density of the samples was measured by weighing a fixed volume of the solution in 10 mL volumetric flasks.
For determining the solubility of edaravone in the studied systems, the samples prepared, as described above, were measured spectrophotometrically using an A360 spectrophotometer from AOE Instruments (Shanghai, China). The spectra were recorded in the 190 nm to 500 nm wavelength range and 1 nm resolution. Methanol was used for the initial calibration of the spectrophotometer and for the dilution of the measured samples, which was conducted in order for the absorbance values to remain below 2.5. The absorbance values at 243 nm were taken into account and based on the calibration curve prepared earlier, the concentration of edaravone in the samples was determined, followed by its mole fractions. The values were averaged from three separate measurements.

solubility at 24 h (40 °C, aqueous with cosolvent or surfactant or cyclodextrin, water + GLE (ChCl:GL 1:2), x*GLE = 0.6, 313.15 K): 692 mg/mL
solubility at 24 h (40 °C, aqueous with cosolvent or surfactant or cyclodextrin, water + GLE (ChCl:GL 1:2), x*GLE = 0.8, 313.15 K): 602 mg/mL
solubility at 24 h (40 °C, organic solvent or mixture, neat DES choline chloride + glycerol (GLE) 1:1 molar ratio, 313.15 K): 398 mg/mL
solubility at 24 h (40 °C, organic solvent or mixture, neat DES choline chloride + glycerol (GLE) 1:2 molar ratio (x*GLE = 1.0), 313.15 K): 492 mg/mL
solubility at 24 h (40 °C, organic solvent or mixture, neat DES choline chloride + glycerol (GLE) 1:4 molar ratio, 313.15 K): 470 mg/mL
mole fraction solubility advantage of 1:2 composition over unimolar composition (298.15 K): 53%
mole fraction solubility advantage of 1:2 composition over unimolar composition (313.15 K): 21%
solubility at 24 h (deep eutectic solvent + water binary mixture, 25 °C, aqueous with cosolvent or surfactant or cyclodextrin, water + ETA (ChCl:EG 1:2), x*ETA = 0.8, 298.15 K): 363 mg/mL
solubility at 24 h (deep eutectic solvent + water binary mixture, 30 °C, aqueous with cosolvent or surfactant or cyclodextrin, water + ETA (ChCl:EG 1:2), x*ETA = 0.6, 303.15 K): 561 mg/mL
solubility at 24 h (deep eutectic solvent + water binary mixture, 30 °C, aqueous with cosolvent or surfactant or cyclodextrin, water + ETA (ChCl:EG 1:2), x*ETA = 0.8, 303.15 K): 452 mg/mL
solubility at 24 h (deep eutectic solvent + water binary mixture, 35 °C, aqueous with cosolvent or surfactant or cyclodextrin, water + ETA (ChCl:EG 1:2), x*ETA = 0.5, 308.15 K): 664 mg/mL
solubility at 24 h (deep eutectic solvent + water binary mixture, 35 °C, aqueous with cosolvent or surfactant or cyclodextrin, water + ETA (ChCl:EG 1:2), x*ETA = 0.6, 308.15 K): 670 mg/mL
solubility at 24 h (deep eutectic solvent + water binary mixture, 35 °C, aqueous with cosolvent or surfactant or cyclodextrin, water + ETA (ChCl:EG 1:2), x*ETA = 0.8, 308.15 K): 561 mg/mL
solubility at 24 h (deep eutectic solvent + water binary mixture, 40 °C, aqueous with cosolvent or surfactant or cyclodextrin, water + ETA (ChCl:EG 1:2), x*ETA = 0.5, 313.15 K): 744 mg/mL
solubility at 24 h (deep eutectic solvent + water binary mixture, 40 °C, aqueous with cosolvent or surfactant or cyclodextrin, water + ETA (ChCl:EG 1:2), x*ETA = 0.6, 313.15 K): 753 mg/mL
solubility at 24 h (deep eutectic solvent + water binary mixture, 40 °C, aqueous with cosolvent or surfactant or cyclodextrin, water + ETA (ChCl:EG 1:2), x*ETA = 0.8, 313.15 K): 655 mg/mL
solubility increase in optimal binary composition compared to neat DES (glycerol-containing systems, x*DES = 0.6, average): 28%
volume of saturated solution containing the recommended 60 mg (neat DES ETA): 0.20 mL
volume of saturated solution containing the recommended 60 mg (neat DES GLE): 0.32 mL
xE mole fraction solubility (neat DES choline chloride + ethylene glycol (ETA) 1:1 molar ratio, 298.15 K): 1031.93 (±62.91) mole fraction ∙10^4
xE mole fraction solubility (neat DES choline chloride + ethylene glycol (ETA) 1:1 molar ratio, 303.15 K): 1400.98 (±40.74) mole fraction ∙10^4
xE mole fraction solubility (neat DES choline chloride + ethylene glycol (ETA) 1:1 molar ratio, 308.15 K): 2089.82 (±49.36) mole fraction ∙10^4
xE mole fraction solubility (neat DES choline chloride + ethylene glycol (ETA) 1:1 molar ratio, 313.15 K): 2966.24 (±120.59) mole fraction ∙10^4
xE mole fraction solubility (neat DES choline chloride + ethylene glycol (ETA) 1:2 molar ratio (x*ETA = 1.0), 298.15 K): 1579.47 (±70.73) mole fraction ∙10^4
xE mole fraction solubility (neat DES choline chloride + ethylene glycol (ETA) 1:2 molar ratio (x*ETA = 1.0), 303.15 K): 2135.68 (±42.46) mole fraction ∙10^4
xE mole fraction solubility (neat DES choline chloride + ethylene glycol (ETA) 1:2 molar ratio (x*ETA = 1.0), 308.15 K): 2878.22 (±133.85) mole fraction ∙10^4
xE mole fraction solubility (neat DES choline chloride + ethylene glycol (ETA) 1:2 molar ratio (x*ETA = 1.0), 313.15 K): 3602.21 (±117.41) mole fraction ∙10^4
xE mole fraction solubility (neat DES choline chloride + ethylene glycol (ETA) 1:4 molar ratio, 298.15 K): 1306.68 (±55.75) mole fraction ∙10^4
xE mole fraction solubility (neat DES choline chloride + ethylene glycol (ETA) 1:4 molar ratio, 303.15 K): 1677.66 (±47.52) mole fraction ∙10^4
xE mole fraction solubility (neat DES choline chloride + ethylene glycol (ETA) 1:4 molar ratio, 308.15 K): 2434.99 (±114.12) mole fraction ∙10^4
xE mole fraction solubility (neat DES choline chloride + ethylene glycol (ETA) 1:4 molar ratio, 313.15 K): 3428.20 (±105.69) mole fraction ∙10^4
xE mole fraction solubility (neat DES choline chloride + glycerol (GLE) 1:1 molar ratio, 298.15 K): 786.83 (±3.34) mole fraction ∙10^4
xE mole fraction solubility (neat DES choline chloride + glycerol (GLE) 1:1 molar ratio, 303.15 K): 1173.65 (±39.25) mole fraction ∙10^4
xE mole fraction solubility (neat DES choline chloride + glycerol (GLE) 1:1 molar ratio, 308.15 K): 1615.31 (±40.69) mole fraction ∙10^4
xE mole fraction solubility (neat DES choline chloride + glycerol (GLE) 1:1 molar ratio, 313.15 K): 2429.30 (±72.71) mole fraction ∙10^4
xE mole fraction solubility (neat DES choline chloride + glycerol (GLE) 1:2 molar ratio (x*GLE = 1.0), 298.15 K): 1052.85 (±68.85) mole fraction ∙10^4
Structure (SMILES): CC1=NN(c2ccccc2)C(=O)C1 [edaravone, 5-methyl-2-phenyl-4H-pyrazol-3-one]
